Data as given in US20050127321A1, “Compositions containing lactone compatibilizers” (priority 2003, published 2005).

Tested on: not listed separately
Assay: Phase separation temperature of compatibilizer / Zerol 150 alkylbenzene oil / R134a mixtures (cloud point on cooling)
Format: physicochemical
Conditions: near 25.0 wt % Zerol 150 : 25.0 wt % compatibilizer : 50.0 wt % R134a, cooled in one degree intervals
Experimental: The phase separation temperatures for lactone compatibilizers of the present invention when combined with Zerol® 150 alkylbenzene oil were determined. […] The glass tube was sealed at one end, and the other end was sealed to a Teflon® vacuum valve stopcock. This entire apparatus was tared, and was attached at valve E to a high vacuum line capable of achieving 10^−4 to 10^−5 torr (See FIG. 1). The pressure was measured by a mercury manometer, F. All five valves, A, B, C, D and E were attached to the manifold via greased ground-glass joints. Valve A joined the manifold to the source of refrigerant. Valve B joined a flask comprising fluorocarbon refrigerant, once loaded into the manifold. Valve C joined a 125.5 mL calibrated vessel to the manifold. And valve D joined a 5 mm OD in leg glass tube 150 mm in length containing oil and compatibilizer.
The glass tube, refrigerant container, and calibrated volume were evacuated by opening valve B, C, D, and E, and keeping valve A closed. After vacuum was achieved, Valve D and E were closed. An atmosphere of refrigerant was introduced into the vacuum line by opening Valve A. After closing valve A, the refrigerant was condensed into the refrigerant container by cooling with a liquid nitrogen bath. Valve E was opened to remove any residual air. Valve E was closed, and the refrigerant container was allowed to warm until the desired pressure was reached as indicated on the mercury manometer whereupon Valve C was closed trapping a known amount of refrigerant in the calibrated volume. The excess refrigerant was condensed back into the refrigerant container by cooling with a liquid nitrogen bath, Valve B was closed, and Valve E was opened to remove all residual gases. The glass tube was cooled in a liquid nitrogen bath, and the refrigerant was transferred from the calibrated volume to the glass tube by closing Valve E, and opening Valves C and D. Valve D was then sealed after all the refrigerant had transferred into the glass tube. The glass tube apparatus was removed from the vacuum line, and the tube was allowed to warm while maintaining the tube behind appropriate protective shielding for safety purposes throughout the rest of the procedure owing to the positive pressure in the glass tube. After removal of grease from the ground glass joint, the previously tared glass tube apparatus was weighed to ensure the appropriate mass of refrigerant had been added to the tube. In a typical experiment, the composition in the tube was near 50.0 wt % R134a, 25.0 wt % Zerol® 150 and 25.0 wt % of compatibilizer.
The phase separation temperature of the mixture was determined by manually shaking the contents of the glass tube while cooling the mixture by one degree Centigrade intervals until a cloudpoint/phase separation was visually observed. Results are shown in Table II in comparison with an amide compatibilizer, N-octyl-pyrrolidin-2-one.

First: CC(CC[C@@H]1C[C@H](C)OC1=O)CC(C)(C)C (relative stereo) [cis-3-(3,5,5-trimethylhexyl)-5-methyl-dihydro-furan-2-one]
Second: CCCCCC[C@@H]1C[C@H](C)OC1=O (relative stereo) [cis-3-hexyl-5-methyl-dihydro-furan-2-one]
The “Phase Separation Temperature” value of the first is higher: 2 deg C for the first, −9 deg C for the second.

Going from `CCCCCC[C@]1(C)CCC(=O)O1` (stereo in doubt) [5-methyl-5-hexyl-dihydro-furan-2-one] to `CCCCCCCC[C@]1(C)CCC(=O)O1` (stereo in doubt) [5-methyl-5-octyl-dihydro-furan-2-one], the “Phase Separation Temperature” value falls from −2 deg C to −4 deg C.

First: O=C1OC[C@H]2CCCC[C@@H]12 (stereo in doubt) [Hexahydro-isobenzofuran-1-one]
Second: CCCCCCCC1CCOC1=O (stereo not drawn) [3-heptyldihydro-furan-2-one]
The “Phase Separation Temperature” value of the first is higher: 4 deg C for the first, 0 deg C for the second.

Compared with `CCCCCCC1CCOC1=O` (stereo not drawn) [3-hexyldihydro-furan-2-one], `CC(CC=C1C[C@@H](C)OC1=O)CC(C)(C)C` (stereo partly drawn) [(E,Z)-3-(3,5,5-trimethylhexylidene)-5-methyl-dihydrofuran-2-one] is lower in “Phase Separation Temperature” value: 5 deg C for the first, 3 deg C for the second.

Compared with `CCCCCCC=C1CC(C)OC1=O` (stereo not drawn) [(E,Z)-3-Heptylidene-5-methyl-dihydro-furan-2-one], `CCCCCC=C1CC(C)OC1=O` (stereo not drawn) [(E,Z)-3-Hexylidene-5-methyl-dihydro-furan-2-one] is lower in “Phase Separation Temperature” value: −6 deg C for the first, −7 deg C for the second.

Going from `CCCC=C1CC(C)OC1=O` (stereo not drawn) [(E,Z)-3-butylidene-5-methyl-dihydro-furan-2-one] to `CC1C/C(=C/C2CCCCC2)C(=O)O1` (stereo not drawn) [(E,Z)-3-cyclohexylmethylidene-5-methyl-dihydrofuran-2-one], the “Phase Separation Temperature” value falls from 9 deg C to −2 deg C.

Compared with `CC=C1CC(C)OC1=O` (stereo not drawn) [(E,Z)-3-ethylidene-5-methyl-dihydro-furan-2-one], `CCCCCCCCC=C1CC(C)OC1=O` (stereo not drawn) [(E,Z)-3-nonylidene-5-methyl-dihydro-furan-2-one] is lower in “Phase Separation Temperature” value: 24 deg C for the first, 4 deg C for the second.

Compared with `CCCCCCCC=C1CC(C)OC1=O` (stereo not drawn) [(E,Z)-3-octylidene-5-methyl-dihydro-furan-2-one], `CCCCC=C1CC(C)OC1=O` (stereo not drawn) [(E,Z)-3-pentylidene-5-methyl-dihydro-furan-2-one] is higher in “Phase Separation Temperature” value: −8 deg C for the first, 0 deg C for the second.

Going from `CCC=C1CC(C)OC1=O` (stereo not drawn) [(E,Z)-3-propylidene-5-methyl-dihydro-furan-2-one] to `CCCCCCCCN1CCCC1=O` [N-octylpyrrolidin-2-one, reference compound], the “Phase Separation Temperature” value falls from 12 deg C to −4 deg C.

First: CCCC[C@@H]1C[C@H](C)OC1=O [cis-(3-butyl-5-methyl)-dihydro-furan-2-one]
Second: CCCCC[C@@H]1C[C@H](C)OC1=O [cis-(3-pentyl-5-methyl)-dihydro-furan-2-one]
The “Phase Separation Temperature” value of the first is higher: 10 deg C for the first, −1 deg C for the second.

First: CCC[C@@H]1C[C@H](C)OC1=O [cis-(3-propyl-5-methyl)-dihydro-furan-2-one]
Second: CCCCCC1CCCC(=O)O1 (stereo not drawn) [delta-decalactone]
The “Phase Separation Temperature” value of the first is higher: 14 deg C for the first, −10 deg C for the second.

Going from `CCCCCCCC1CCCC(=O)O1` (stereo not drawn) [delta-dodecalactone] to `CCCCCCC1CCCC(=O)O1` (stereo not drawn) [delta-undecalactone], the “Phase Separation Temperature” value rises from −13 deg C to −12 deg C.

Going from `CCCCOC(=O)c1ccccc1C(=O)OCCCC` [dibutyl phthalate, reference compound] to `CCCCCCC1CCC(=O)O1` (stereo not drawn) [gamma-decalactone], the “Phase Separation Temperature” value falls from 18 deg C to −3 deg C.

First: CCCCCCCCC1CCC(=O)O1 (stereo not drawn) [gamma-dodecalactone]
Second: CCCCCC1CCC(=O)O1 (stereo not drawn) [gamma-nonalactone]
The “Phase Separation Temperature” value of the first is lower: −6 deg C for the first, −2 deg C for the second.

Going from `CCCCC1CCC(=O)O1` (stereo not drawn) [gamma-octalactone] to “(E,Z)-3-decylidene-5-methyl-dihydro-furan-2-one”, the “Phase Separation Temperature” value rises from 10 deg C to 13 deg C.

For `CC[C@@H]1C[C@H](C)OC1=O` (relative stereo) [cis-3-ethyl-5-methyl-dihydro-furan-2-one], the “Phase Separation Temperature” value was over 25 deg C.
For `CCCCCCC[C@@H]1C[C@H](C)OC1=O` (relative stereo) [cis-3-heptyl-5-methyl-dihydro-furan-2-one], the “Phase Separation Temperature” value was “phase gelled and/or precipitated at −11 deg C”.
With `CCC1CCC(=O)O1` (stereo not drawn) [gamma-caprolactone, reference compound] the “Phase Separation Temperature” value was “Immiscible with Zerol ®150”.

Tested on: New Zealand White rabbits
Assay: Acute skin irritation/corrosive potential, scored on the Draize scale
Format: in vivo
Conditions: 0.5 mL undiluted, approximately 4 hours exposure, semi-occlusive, evaluated up to 72 hours
Experimental: Compositions of the present invention were evaluated for acute skin irritation/corrosive potential in New Zealand White rabbits. An aliquot of 0.5 mL of undiluted compatibilizer was administered to a localized site on the backs of the animals. The test sites were covered with a semi-oclusive dressing to ensure contact between the skin and the test substance. The animals were exposed to the test substances for approximately 4 hours. The test sites were evaluated for erythrema, edema, and other evidence of dermal effects for up to 72 hours following the removal of the test substance. Observed dermal effects were scored according to the Draize scale. The reversibility of dermal effects was assessed for up to 14 days, as necessary.

With 5-methyl-n-octyl-pyrrolidin-2-one the Classification was “Corrosive”.
With `CCCCCCC1CC(C)OC1=O` (stereo not drawn) [3-hexyl-5-methyl-gammabutyrolactone] the Classification was “Not a skin irritant”.
With `CC1CCC(=O)N1C1CCCCC1` (stereo not drawn) [5-methyl-n-cyclohexyl pyrrolidin-2-one] the Classification was “Corrosive”.
With `CCCCCCCCC(=O)N(C)C` [N,N-Dimethylnonanamide] the Classification was “Severe irritant”.
With `CCCCCCCCN1CCCC1=O` [N-octylpyrrolidin-2-one, reference compound] the Classification was “Severe irritant”.

For 5-methyl-n-octyl-pyrrolidin-2-one, the “Observations (dermal effects)” value was “Necrosis”.
With `CCCCCCC1CC(C)OC1=O` (stereo not drawn) [3-hexyl-5-methyl-gammabutyrolactone] the “Observations (dermal effects)” value was “No irritation”.
In the case of `CC1CCC(=O)N1C1CCCCC1` (stereo not drawn) [5-methyl-n-cyclohexyl pyrrolidin-2-one], the “Observations (dermal effects)” value is reported as “Necrosis”.

Tested on: not listed separately
Assay: Kinematic viscosity of lactone compatibilizers
Format: physicochemical
Conditions: at 40° C.

With `CCCCCC[C@@H]1C[C@H](C)OC1=O` (relative stereo) [cis-3-hexyl-5-methyl-dihydro-furan-2-one] the kinematic viscosity was 4.5 centistokes.
